Assay results taken from publication PMC4728507, “Bioactive Polycyclic Quinones from Marine Streptomyces sp. 182SMLY” (Marine Drugs, 2016).
In brackets after ≈: the same amount, converted by molar mass. Where two headings read alike, the source gives them in different places.

Columns and labels:
[1] = system: Escherichia coli ATCC 25922; assay: Antimicrobial assay, micro broth dilution, E. coli; assay type: cell-based; conditions: ATCC 25922, micro broth dilution
Protocol: (§1) Compounds 1 and 2 were also determined for their activities against methicillin-resistant Staphylococcus aureus ATCC 43300 and Escherichia coli ATCC 25922.
(§2) The micro broth dilution method as described in the previous report was used to determine the antimicrobial activity of the isolated compounds against the methicillin-resistant Staphylococcus aureus ATCC 43300 and Escherichia coli ATCC 25922. Norfloxacin, a broad-spectrum antibiotic against both Gram-positive and Gram-negative bacteria, was used as the positive control.

glioma U87-MG cells = assay: SRB assay, proliferation of glioma U87-MG cells; assay type: cell-based; conditions: Homo sapiens, U-87 MG, 72 h, read-out: IC50 inhibiting the proliferation of cells, U87-MG
Protocol: (§3) The compounds 1 and 2 were assayed for their activities inhibiting the proliferation of glioma C6, U251, U87-MG, and SHG-44 cells using the sulforhodamine B (SRB) assay. The SRB assay is a method that measures total cellular protein content for evaluating the activity of tested compounds against the proliferation of tumor cells. Doxorubicin (DOX) was used as a positive control. Glioma cells were treated with tested compounds for 72 h at different concentrations. […] N-acetyl-N-demethylmayamycin (1) and streptoanthraquinone A (2) were also assayed for their activity against normal human astrocytes (HA). The initial assay was conducted on the concentrations from 0.35 to 7.0 μM for 1 and on those from 1.65 to 16.5 μM for 2. The cell viability of HA cells from each tested concentration of both compounds was 100%.
(§4) Human glioma U251 and rat glioma C6 cells were cultured in DMEM (Dulbecco’s Modified Eagle Medium, Gibco, Thermo Fisher Scientific Inc., Waltham, MA, USA) with 10% FBS (Fetal Bovine Serum, PAA Laboratories Inc., Dartmouth, MA, USA), human glioma SHG-44 in RPMI-1640 Medium (Roswell Park Memorial Institution 1640 Medium, Gibco, Thermo Fisher Scientific Inc., Waltham, MA, USA), human glioma U87-MG cells in MEM (Minimum Essential Medium, Gibco), and normal human astrocytes (HA) in AM (Astrocyte Medium, ScienCell, Cat. No. 1801). All cells were incubated at 37 °C in a humidified incubator with 5% CO2. Cells after the third generation were used for experiment.
(§5) The SRB assay was used to evaluate the activity of the isolated compounds in inhibiting the proliferation of glioma U87-MG, U251, SHG-44, and C6 cells. Doxorubicin (DOX) was used as the positive control. Briefly, glioma cells were plated in a 96-well plate and then treated with different concentrations of tested compound after cells adhesion for 24 h. […] After dried, dye was dissolved in a 10 mM Tris buffer and measured at 515 nm on a microplate reader (BioTech, Winooski, VT, USA).

glioma U251 cells [2] = assay: Apoptosis in glioma U251 cells, flow cytometry with Annexin V-FITC/PI double staining; assay type: cell-based, human; conditions: 36 h, control 3.58%
Protocol: N-acetyl-N-demethylmayamycin (1) and streptoanthraquinone A (2) were further tested for their ability to induce apoptosis in glioma U251 cells by flow cytometry using Annexin V-FITC/PI double staining.
Figure 6 N-acetyl-N-demethylmayamycin (1) and streptoanthraquinone A (2) induced apoptosis in the glioma U251 cells quantified by cytometric analysis. U251 cells were treated with 1 (0.7 μM) or 2 (3.3 μM) for 36 h and then stained with Annexin-V FITC and PI double staining (B1: necrotic cells; B2: late apoptotic cells; B3: normal glioma cells; B4: early apoptotic cells). TEXT PRINTED IN THE PICTURE: 1: U251: B1: 2.87% (0.7 μM); U251: B2: 31.39% (0.7 μM); U251: B3: 54.79% (0.7 μM); U251: B4: 10.95% (0.7 μM) | 2: U251: B1: 3.00% (3.3 μM); U251: B2: 29.85% (3.3 μM); U251: B3: 56.75% (3.3 μM); U251: B4: 10.40% (3.3 μM) DOUBTS OF THE COPYIST ABOUT THIS PICTURE: 1, B3: 54.79% is partly covered by plot points, digits not certain / 2, B3: 56.75% is partly covered by plot points, digits not certain / The CON (untreated control) plot prints B1 0.28%, B2 2.17%, B3 96.14% (partly covered by plot points, 96.14 or 96.44), B4 1.41%; left out of lines because it is not a substance

glioma U251 cells [3] = assay: SRB assay, proliferation of glioma U251 cells; assay type: cell-based; conditions: Homo sapiens, U-251, 72 h, read-out: IC50 inhibiting the proliferation of cells, U251
Protocol: as §3, §4, §5

glioma SHG-44 cells = assay: SRB assay, proliferation of glioma SHG-44 cells; assay type: cell-based; conditions: Homo sapiens, 72 h, read-out: IC50 inhibiting the proliferation of cells, SHG-44
Protocol: as §3, §4, §5

[4] = Activity against normal human astrocytes (HA); assay type: cell-based; conditions: human, normal human astrocytes (HA), initial assay, read-out: Cell viability of HA cells
Protocol: as §3, §4

[5] = system: normal human astrocytes (HA); assay: Activity against normal human astrocytes (HA); assay type: cell-based; conditions: Homo sapiens, Astrocyte; HA cells, second assay in higher concentrations
Protocol: as §3, §4

glioma C6 cells = assay: SRB assay, proliferation of glioma C6 cells; assay type: cell-based; conditions: Rattus norvegicus, 72 h, read-out: IC50 inhibiting the proliferation of cells, C6
Protocol: as §3, §4, §5

[6] = system: glioma C6, U251, U87-MG, and SHG-44 cells; assay: SRB assay, four glioma cell lines (summary ranges); assay type: cell-based; conditions: 72 h, read-out: IC50 range over four tested glioma cell lines
Protocol: as §3
The SRB assay was used to evaluate the activity of the isolated compounds in inhibiting the proliferation of glioma U87-MG, U251, SHG-44, and C6 cells. Doxorubicin (DOX) was used as the positive control. Briefly, glioma cells were plated in a 96-well plate and then treated with different concentrations of tested compound after cells adhesion for 24 h. After 72 h of the treatment, cells were fixed with 50 μL of a 10% cold TCA solution for 1 h at 4 °C, washed with distilled water five times, and then dried at room temperature. The dried cells were stained with 50 μL of 0.4% SRB for ten minutes and rinsed with a 1% acetic acid solution five times. After dried, dye was dissolved in a 10 mM Tris buffer and measured at 515 nm on a microplate reader (BioTech, Winooski, VT, USA).

[7] = system: methicillin-resistant Staphylococcus aureus ATCC 43300; assay: Antimicrobial assay, micro broth dilution, MRSA; assay type: cell-based; conditions: ATCC43300, ATCC 43300, micro broth dilution, read-out: MIC, growth of methicillin-resistant S. aureus
Protocol: as §1, §2

With `CC(=O)OC1c2c3c(c(O)c4c2C(Cc2c(O)cc(C)cc2-4)OC1C)C(=O)c1cccc(O)c1C3=O` (centres unmarked) [Compound 2, streptoanthraquinone A] the “MIC, growth of E. coli” value [1] was “no activity”, the IC50 (glioma U87-MG cells) was 4.6 ± 0.3 µM and the “Increase of total apoptotic cells (early and late) compared to the control” value (glioma U251 cells [2]; U251, 3.3 μM) was 36.67%. It also gave an IC50 (glioma U251 cells [3]) of 3.3 ± 0.3 µM, an IC50 (glioma SHG-44 cells) of 6.5 ± 1.1 µM and a viability ([4]; each tested concentration from 1.65 to 16.5 μM) of 100%. It also gave an IC50 [5] of over 100 µM, an IC50 (glioma C6 cells) of 7.3 ± 1.4 µM and an IC50 [6] of 3.3 to 7.3 µM.

In the case of `CC(=O)NC1CC(c2c(O)c3c(c4c(O)cc(C)cc24)C(=O)c2cccc(O)c2C3=O)OC(C)C1O` (centres unmarked) [Compound 1, N-acetyl-N-demethylmayamycin], the “MIC, growth of E. coli” value [1] is reported as “no activity”, the IC50 (glioma U87-MG cells) is reported as 1.4 ± 0.1 µM and the “Increase of total apoptotic cells (early and late) compared to the control” value (glioma U251 cells [2]; U251, 0.7 μM) is reported as 38.76%. The IC50 (glioma U251 cells [3]) was 0.7 ± 0.2 µM, the IC50 (glioma SHG-44 cells) was 3.9 ± 0.4 µM and the viability ([4]; each tested concentration from 0.35 to 7.0 μM) was 100%. For the same molecule, the IC50 [5] was 25 ± 1.3 µM, the IC50 (glioma C6 cells) was 0.5 ± 0.1 µM and the MIC [7] was 20 µM (≈ 9.83 µg/mL). For the same molecule, the IC50 [6] was 0.5 to 3.9 µM.

For `COc1cccc2c1C(=O)c1c(O)c3c(c(O)c1C2=O)C[C@@](O)(C(=O)CO)C[C@@H]3O[C@H]1C[C@H](N)[C@H](O)[C@H](C)O1` [Doxorubicin (DOX), Doxorubicin, reference compound], the IC50 (glioma U87-MG cells) was 0.9 ± 0.1 µM, the IC50 (glioma U251 cells [3]) was 6.7 ± 1.1 µM and the IC50 (glioma SHG-44 cells) was 9 ± 0.8 µM. It also gave an IC50 (glioma C6 cells) of 1 ± 0.1 µM and an IC50 [6] of 0.9 to 9 µM.

Molecule `CCn1cc(C(=O)O)c(=O)c2cc(F)c(N3CCNCC3)cc21` [norfloxacin, reference compound] has an MIC ([1]; Escherichia coli, ATCC25922, read-out: MIC, growth of E. coli) of 31.3 µM (≈ 10 µg/mL) and an MIC [7] of 62.6 µM (≈ 20 µg/mL).
